As usually defined, the IC50 is the concentration that gives 50% inhibition. Lower therefore signals greater potency in that assay. A word on the Kd: it is the equilibrium constant for the complex coming apart.

Among the data in patent publication US20230348424A1, “HETEROCYCLIC COMPOUNDS AND METHODS OF USE” (Schrödinger, Inc., priority 2022, published 2023) are IC50 and Kd values, retold here.

Assay [1] deals with SOS1:KRAS (G12C) interaction (Homo sapiens (Human), UniProt Q07889). In words: SOS1 KRas(G12C) FRET Assay. The settings on record: 0.5 nM His10-SOS1 (res. 564-1049), 2.5 nM GST-KRAS G12C (res. 1-169), 2 hrs at RT. The class given is binding. A digest of the protocol:
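GST-KRAS G12C (res. 1-169) at 2.5 nM and His10-SOS1 (res. 564-1049) at 0.5 nM, final, in PBS with 0.1% BSA, 5 mM MgCl2, 100 mM KF, 5 mM DTT and 0.5% DMSO. After 2 h at RT, FRET read at 665/615 nm and normalized to DMSO and no-SOS1 controls. IC50 by non-linear regression.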

Another assay addresses human SOS1 (Homo sapiens (Human), UniProt Q07889). In words: Surface Plasmon Resonance (SPR) SOS1 Binding Assay. Particulars: biotinylated SOS1 (res. 564-1049), Biacore 8K, 25° C., kinetic or steady state fit, 1:1 binding; read-out: hSOS1 KD. The procedure: Binding to SOS1 was measured using a SPR assay with purified recombinant human SOS1 substrate (res. 564-1049 with N-terminal Avi tag; purified and biotinylated based on Hillig, et al., Proc Natl Acad Sci USA (2019); 116(7):2551-2560). SPR measurements were performed on a Biacore 8K SPR instrument (GE Healthcare, Sweden). Assays were performed at 25° C. using Series S SA sensor chips pre-coated with streptavidin (GE Healthcare, Cat. BR100531). Biotinylated SOS1 diluted in sample buffer (20 mM Tris HCI, 150 mM NaCl, 1 mM DTT, 0.05% TWEEN 20, 1 mM MgCh, pH 8.0) was captured to one flow cell of the chip to about 3,000 resonance units (RU) using sample buffer supplemented with 5% DMSO as a running buffer. Serial dilutions of the assayed compounds in the running buffer at 100, 50 or 0.5 µM were injected for 60 s at a flow rate of 30 µL/min and association phases were recorded. Dissociation of the samples was monitored for 600 s. Data processing was performed using Biacore Insight Software (Biacore, GE Healthcare). Sensorgrams recorded on a SA flow cell without captured protein were subtracted from sensorgrams recorded on the SOS1 surface. Blank injections of running buffer were used for double referencing and solvent correction was applied to all sample sensorgrams to correct for buffer mismatches. KDS were estimated using a kinetic or steady state, where applicable, fitting model describing a reversible equilibrium with 1:1 binding between SOS1 and the compound.

human SOS1, sequence (Q07889 564-1049): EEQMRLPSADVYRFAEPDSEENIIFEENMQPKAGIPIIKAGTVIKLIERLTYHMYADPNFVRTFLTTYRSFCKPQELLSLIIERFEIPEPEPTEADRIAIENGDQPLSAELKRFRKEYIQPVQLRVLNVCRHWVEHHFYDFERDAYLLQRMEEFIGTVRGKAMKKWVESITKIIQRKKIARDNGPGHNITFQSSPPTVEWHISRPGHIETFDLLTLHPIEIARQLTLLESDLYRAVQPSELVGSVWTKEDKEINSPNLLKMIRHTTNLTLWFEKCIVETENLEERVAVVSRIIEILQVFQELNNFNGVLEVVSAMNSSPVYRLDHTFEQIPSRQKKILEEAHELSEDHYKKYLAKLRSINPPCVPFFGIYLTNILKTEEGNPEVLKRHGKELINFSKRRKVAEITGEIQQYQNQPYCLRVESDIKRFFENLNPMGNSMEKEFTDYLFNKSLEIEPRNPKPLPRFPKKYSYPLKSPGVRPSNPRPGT
SOS1:KRAS (G12C) interaction, sequence (Q07889 564-1049, stated change not applied): as the sequence (Q07889 564-1049) above

`Cc1c([C@@H](C)NC(=O)c2cn(C3CCOCC3)c(=O)cc2NC2CCOCC2)cccc1C(F)(F)F` [Example 42, (R)-N-(1-(2-methyl-3-(trifluoromethyl)phenyl)ethyl)-6-oxo-1-(tetrahydro-2H-pyran-4-yl)-4-((tetrahydro-2H-pyran-4-yl)amino)-1,6-dihydropyridine-3-carboxamide] registered an IC50 in assay [1] of 553 nM. Also, the Kd on human SOS1 was 186 nM.
`Cc1c([C@@H](C)NC(=O)c2cn(C3CCOCC3)c(=O)cc2NC2(C)CCN(C)CC2)cccc1C(F)(F)F` [Example 45, (R)-4-((1,4-dimethylpiperidin-4-yl)amino)-N-(1-(2-methyl-3-(trifluoromethyl)phenyl)ethyl)-6-oxo-1-(tetrahydro-2H-pyran-4-yl)-1,6-dihydropyridine-3-carboxamide] displayed an IC50 in assay [1] of 37.9 nM. Besides, on human SOS1, the Kd turned out to be 21 nM.
Take `C[C@@H](NC(=O)c1cn(C2(C(F)F)CC2)c(=O)cc1NC1CCN(C)CC1)c1cccc(C(F)F)c1F` [Example 49, (R)-N-(1-(3-(difluoromethyl)-2-fluorophenyl)ethyl)-1-(1-(difluoromethyl)cyclopropyl)-4-((1-methylpiperidin-4-yl)amino)-6-oxo-1,6-dihydropyridine-3-carboxamide]: the IC50 in assay [1] came to 13.5 nM. Moreover, on human SOS1, the Kd came out at 3 nM.
In assay [1], `Cc1c([C@@H](C)NC(=O)c2cn(C3(C(F)F)CC3)c(=O)cc2NC2CCN(C)CC2)cccc1C(F)(F)F` [Example 50, (R)-1-(1-(difluoromethyl)cyclopropyl)-N-(1-(2-methyl-3-(trifluoromethyl)phenyl)ethyl)-4-((1-methylpiperidin-4-yl)amino)-6-oxo-1,6-dihydropyridine-3-carboxamide] showed an IC50 of 20.3 nM. Also, at human SOS1, the Kd is 8 nM.
Consider `C[C@@H](NC(=O)c1cn(C2(C(F)F)CC2)c(=O)cc1NC1CCN(C)CC1)c1cccc(C(C)(F)F)c1F` [Example 51, (R)-N-(1-(3-(1,1-difluoroethyl)-2-fluorophenyl)ethyl)-1-(1-(difluoromethyl)cyclopropyl)-4-((1-methylpiperidin-4-yl)amino)-6-oxo-1,6-dihydropyridine-3-carboxamide], for which the half-maximal inhibitory concentration (IC50) in assay [1] worked out at 18.5 nM. The Kd at human SOS1 stood at 8 nM.
Regarding `C[C@@H](NC(=O)c1cn(C2(C(F)F)CC2)c(=O)cc1NC1CCN(C)CC1)c1cccc(C(F)(F)F)c1F` [Example 52, (R)-1-(1-(difluoromethyl)cyclopropyl)-N-(1-(2-fluoro-3-(trifluoromethyl)phenyl)ethyl)-4-((1-methylpiperidin-4-yl)amino)-6-oxo-1,6-dihydropyridine-3-carboxamide], half-maximal inhibition in assay [1] (IC50) was put at 13.6 nM. In addition, at human SOS1, the Kd worked out at 6 nM.
On to `C[C@@H](NC(=O)c1cn(C2(C(F)F)CC2)c(=O)cc1NCCN(C)C)c1cccc(C(F)F)c1F` [Example 61, (R)-N-(1-(3-(difluoromethyl)-2-fluorophenyl)ethyl)-1-(1-(difluoromethyl)cyclopropyl)-4-((2-(dimethylamino)ethyl)amino)-6-oxo-1,6-dihydropyridine-3-carboxamide], for which the half-maximal inhibitory concentration (IC50) in assay [1] was found to be 65 nM. Further, at human SOS1, the Kd was 34 nM.
In turn, `C[C@@H](NC(=O)c1cn([C@@H]2CCOC[C@H]2F)c(=O)cc1NC1CCN(C)CC1)c1cccc(C(F)F)c1F` [Example 79, N-((R)-1-(3-(difluoromethyl)-2-fluorophenyl)ethyl)-1-((3S,4R)-3-fluorotetrahydro-2H-pyran-4-yl)-4-((1-methylpiperidin-4-yl)amino)-6-oxo-1,6-dihydropyridine-3-carboxamide] gave an IC50 in assay [1] of 3.7 nM. For the same compound, on human SOS1, the Kd was determined as 2 nM.
With `C[C@@H](NC(=O)c1cn([C@H]2CCOC[C@@H]2F)c(=O)cc1NC1CCN(C)CC1)c1cccc(C(F)F)c1F` [Example 80, N-((R)-1-(3-(difluoromethyl)-2-fluorophenyl)ethyl)-1-((3R,4S)-3-fluorotetrahydro-2H-pyran-4-yl)-4-((1-methylpiperidin-4-yl)amino)-6-oxo-1,6-dihydropyridine-3-carboxamide], the 50% inhibitory concentration (IC50) in assay [1] was 16.7 nM. The Kd on human SOS1 came out at 8 nM.
In assay [1], `C[C@@H](NC(=O)c1cn(C2(C(F)F)CC2)c(=O)cc1NCCN1CCOCC1)c1cccc(C(F)F)c1F` [Example 81, (R)-N-(1-(3-(difluoromethyl)-2-fluorophenyl)ethyl)-1-(1-(difluoromethyl)cyclopropyl)-4-((2-morpholinoethyl)amino)-6-oxo-1,6-dihydropyridine-3-carboxamide] came in with a concentration for half-maximal inhibition (IC50) of 174 nM. Moreover, the Kd at human SOS1 was determined as 96 nM.
The compound `C[C@@H](NC(=O)c1cn(C2(C(F)F)CC2)c(=O)cc1NC1CCN(CCF)CC1)c1cccc(C(F)F)c1F` [Example 82, (R)-N-(1-(3-(difluoromethyl)-2-fluorophenyl)ethyl)-1-(1-(difluoromethyl)cyclopropyl)-4-((1-(2-fluoroethyl)piperidin-4-yl)amino)-6-oxo-1,6-dihydropyridine-3-carboxamide] yielded an IC50 in assay [1] of 26.3 nM. For the same compound, the Kd on human SOS1 amounted to 17 nM.
For `C[C@@H](NC(=O)c1cn(C2(C(F)F)CC2)c(=O)cc1N[C@H]1CN2CCC1CC2)c1cccc(C(F)F)c1F` [Example 83, N-((R)-1-(3-(difluoromethyl)-2-fluorophenyl)ethyl)-1-(1-(difluoromethyl)cyclopropyl)-6-oxo-4-(((R)-quinuclidin-3-yl)amino)-1,6-dihydropyridine-3-carboxamide] the same measures were 25.7 nM and 20 nM.
In assay [1], `C[C@@H](NC(=O)c1cn(C2(C(F)F)CC2)c(=O)cc1N[C@@H]1CN2CCC1CC2)c1cccc(C(F)F)c1F` [Example 84, N-((R)-1-(3-(difluoromethyl)-2-fluorophenyl)ethyl)-1-(1-(difluoromethyl)cyclopropyl)-6-oxo-4-(((S)-quinuclidin-3-yl)amino)-1,6-dihydropyridine-3-carboxamide] displayed a half-maximal inhibitory concentration (IC50) of 10.2 nM. Further, the Kd at human SOS1 is 9 nM.
Taken in the same sequence, the figures for `C[C@@H](NC(=O)c1cn(C2(C(F)F)CC2)c(=O)cc1NC[C@@H]1CC2CCN1CC2)c1cccc(C(F)F)c1F` [Example 85, N-((R)-1-(3-(difluoromethyl)-2-fluorophenyl)ethyl)-1-(1-(difluoromethyl)cyclopropyl)-6-oxo-4-((((S)-quinuclidin-2-yl)methyl)amino)-1,6-dihydropyridine-3-carboxamide] were 26.1 nM and 12 nM.
Consider `C[C@@H](NC(=O)c1cn(C2(C(F)F)CC2)c(=O)cc1NC[C@H]1CC2CCN1CC2)c1cccc(C(F)F)c1F` [Example 86, N-((R)-1-(3-(difluoromethyl)-2-fluorophenyl)ethyl)-1-(1-(difluoromethyl)cyclopropyl)-6-oxo-4-((((R)-quinuclidin-2-yl)methyl)amino)-1,6-dihydropyridine-3-carboxamide], for which half-maximal inhibition in assay [1] (IC50) was put at 73.1 nM. Further, the Kd on human SOS1 was 29 nM.
For `C[C@H](Nc1cc(=O)n(C2(C(F)F)CC2)cc1C(=O)N[C@H](C)c1cccc(C(F)F)c1F)c1cncn1C` [Example 87, N-((R)-1-(3-(difluoromethyl)-2-fluorophenyl)ethyl)-1-(1-(difluoromethyl)cyclopropyl)-4-(((S)-1-(1-methyl-1H-imidazol-5-yl)ethyl)amino)-6-oxo-1,6-dihydropyridine-3-carboxamide] the same measures were 61.7 nM and 84 nM.
In assay [1], `C[C@@H](NC(=O)c1cn(C2(C(F)F)CC2)c(=O)cc1N[C@H](C)c1cncn1C)c1cccc(C(F)F)c1F` [Example 88, N-((R)-1-(3-(difluoromethyl)-2-fluorophenyl)ethyl)-1(1-(difluoromethyl)cyclopropyl)-4(((R)-1-(1-methyl-1H-imidazol-5-yl)ethyl)amino)-6-oxo-1,6-dihydropyridine-3-carboxamide] came in with an IC50 of 87.3 nM. The Kd at human SOS1 was 96 nM.
`C[C@@H](NC(=O)c1cn(C23CC(C2)C3)c(=O)cc1N[C@H]1[C@@H]2CN(C)C[C@@H]21)c1cccc(C(F)F)c1F` [Example 90, 1-(bicyclo[1.1.1]pentan-1-yl)-N-((R)-1-(3-(difluoromethyl)-2-fluorophenyl)ethyl)-4-(((1R,5S,6s)-3-methyl-3-azabicyclo[3.1.0]hexan-6-yl)amino)-6-oxo-1,6-dihydropyridine-3-carboxamide] came in with an IC50 in assay [1] of 13.4 nM. Moreover, on human SOS1, the Kd is 9 nM.
`[2H]C([2H])([2H])N1C[C@@H]2[C@H](C1)[C@H]2Nc1cc(=O)n(C23CC(C2)C3)cc1C(=O)N[C@H](C)c1cccc(C(F)F)c1F` [Example 91, 1-(bicyclo[1.1.1]pentan-1-yl)-N-((R)-1-(3-(difluoromethyl)-2-fluorophenyl)ethyl)-4-(((1R,5S,6s)-3-(methyl-d3)-3-azabicyclo[3.1.0]hexan-6-yl)amino)-6-oxo-1,6-dihydropyridine-3-carboxamide] came in with an IC50 in assay [1] of 13.9 nM. In addition, the equilibrium dissociation constant (Kd) on human SOS1 was found to be 12 nM.
